This assay has as its system CYPRO. Kind of assay: Example VI in-water applied ternary mixtures, greenhouse, transplanted paddy rice weeds. It is filed as in vivo, Cyperus rotundus L. How it is done:
Weed seeds or nutlets of the desired test plant species were planted in puddled soil (mud) prepared by mixing a shredded, non-sterilized mineral soil (50.5 percent silt, 25.5 percent clay, and 24 percent sand, with a pH of about 7.6 and an organic matter content of about 2.9 percent) and water at a 1:1 volumetric ratio. The prepared mud was dispensed in 365 mL aliquots into 16-ounce (oz.) non-perforated plastic pots with a surface area of 86.59 square centimeters (cm^2) leaving a headspace of 3 centimeters (cm) in each pot. Mud was allowed to dry overnight prior to planting or transplanting. Rice seeds were planted in Sun Gro MetroMix® 306 planting mixture, which typically has a pH of 6.0 to 6.8 and an organic matter content of about 30 percent, in plastic plug trays. Seedlings at the second or third leaf stage of growth were transplanted into 860 mL of mud contained in 32-oz. non-perforated plastic pots with a surface area of 86.59 cm^2 4 days prior to herbicide application. The paddy was created by filling the headspace of the pots with 2.5 to 3 cm of water. When required to ensure good germination and healthy plants, a fungicide treatment and/or other chemical or physical treatment was applied. The plants were grown for 4-22 days in a greenhouse with an approximate 14 hr. photoperiod which was maintained at about 29° C. during the day and 26° C. during the night. Nutrients were added as Osmocote® (19:6:12, N:P:K+minor nutrients) at 2 g per 16-oz. pot and 4 g per 32-oz. pot. Water was added on a regular basis to maintain the paddy flood, and supplemental lighting was provided with overhead metal halide 1000-Watt lamps as necessary. The plants were employed for testing when they reached the first through fourth true leaf stage.
Treatments consisted of the benzyl ester of 4-amino-3-chloro-5-fluoro-6-(4-chloro-2-fluoro-3-methoxy-phenyl)pyridine-2-carboxylic acid (Compound A), formulated as an SC (suspension concentrate), an ACCase inhibitor herbicide, and a third herbicidal component, each applied alone and in ternary combination. Forms of compound A were applied on an acid equivalent basis.
The ACCase inhibitor component was applied on an active ingredient basis and included cyhalofop-R-butyl formulated as Clincher® G and metamifop formulated as Metamifop EC. Other herbicidal components were applied on an active ingredient or acid equivalent basis depending on the compound and included penoxsulam formulated as Grasp® SC, bentazon sodium formulated as Basagran®, triclopyr […] (TEA) salt formulated as Grandstand® R, benzobicyclon formulated as Benzobicyclon, benfuresate formulated as Full Slot® WG, pyraclonil formulated as Pyraclon® Flowable, mefenacet (technical grade material), and pretilachlor (technical grade material).
Treatment requirements for each compound or herbicidal component were calculated based upon the rates being tested, the concentration of active ingredient or acid equivalent in the formulation, an application volume of 1 mL per component per pot, and an application area of 86.59 cm^2 per pot.
For formulated compounds, a measured amount was placed in an individual 100 or 200 mL glass vial and was dissolved in a volume of 1.25% (v/v) Agri-Dex® crop oil concentrate to obtain application solutions.
For technical grade compounds, a weighed amount was placed in an individual 100 to 200 mL glass vial and was dissolved in a volume of acetone to obtain concentrated stock solutions.
Applications were made by injecting with a pipetter appropriate amounts of the application solutions, into the aqueous layer of the paddy. Control plants were treated in the same manner with the solvent blank. Applications were made so that all treated plant material received the same concentrations of acetone and crop oil concentrate.
The treated plants and control plants were placed in a greenhouse as described above and water was added as needed to maintain a paddy flood. […]

Turning to `COc1c(Cl)ccc(-c2nc(C(=O)OCc3ccccc3)c(Cl)c(N)c2F)c1F` [Compound A Benzyl Ester, benzyl ester of 4-amino-3-chloro-5-fluoro-6-(4-chloro-2-fluoro-3-methoxy-phenyl)pyridine-2-carboxylic acid], the “Visual Weed Control (%) - 21 DAA CYPRO Obs” value by setting is: (2.19 gae/ha) 0%; (Table 69, 4 gae/ha, 21 DAA) 3%; (Table 69, 8 gae/ha, 21 DAA) 33%; (Table 70, 4 gae/ha, 21 DAA) 3%; (Table 70, 8 gae/ha, 21 DAA) 33%. The “Visual Weed Control (%) - 24 DAA CYPRO Obs” value is, setting by setting: (4 gae/ha) 40%; (8 gae/ha) 60%; (16 gae/ha) 85%.

Consider `CCCCOC(=O)[C@@H](C)Oc1ccc(Oc2ccc(C#N)cc2F)cc1` [Cyhalofop-butyl, butyl(2R)-2-[4-(4-cyano-2-fluorophenoxy)phenoxy]propanoate, reference compound], for which the “Visual Weed Control (%) - 21 DAA CYPRO Obs” value is, setting by setting: (22.5 gai/ha) 0%; (45 gai/ha) 0%; (Table 69, 90 gai/ha, 21 DAA) 0%; (Table 69, 180 gai/ha, 21 DAA) 0%; (Table 70, 180 gai/ha, 21 DAA) 0%. Besides, the “Visual Weed Control (%) - 24 DAA CYPRO Obs” value is listed as 0% (90 gai/ha) and 0% (180 gai/ha).
